Patent US8791265B2, “Sulfonamido derivatives of 3,4-diarylpyrazoles as protein kinase inhibitors” (Nerviano Medical Sciences S.R.L., priority 2010, dated 2014)

Key:
[1] = system: human melanoma cells A375 (with a mutated B-RAF); test: In vitro cell proliferation assay, A375; assay type: cell-based; conditions: A-375, 72 hours treatment, cell number by ATP monitoring
Experimental: (§1) Exponentially growing human melanoma cells A375 (with a mutated B-RAF) and human melanoma cells Mewo (with wild-type B-Raf) were seeded and incubated at 37° C. in a humidified 5% CO2 atmosphere. After 24 hours, scalar doses of the compound were added to the medium and cells oncubated for 72 hours. At the end of treatment, cells were washed and counted. Cell number was determined by a cellular adenosine triphosphate monitoring system. Cell proliferation was compared to control cells and the concentration inhibiting cell growth by 50% was calculated.

[2] = system: human melanoma cells Mewo (with wild-type B-Raf); test: In vitro cell proliferation assay, Mewo; assay type: cell-based; conditions: 72 hours treatment, cell number by ATP monitoring
Experimental: as §1

[3] = system: p-MAPK (T202/Y204) in A375 human melanoma cells, having a mutated B-RAF; test: p-MAPK (T202/Y204) ArrayScan assay; assay type: cell-based; conditions: A-375, 1.5 or 2 hours treatment, p-MAPK cytoplasmatic fluorescence intensity, read-out: Array Scan A375 IC50
Experimental: A375 human melanoma cells, having a mutated B-RAF, are seeded in 384-well poly-lysine coated plates (Matrix) at a density of 1000 cells/well with appropriate medium supplemented with 10% FCS and incubated for 16-24 hours. Cells are treated for 1.5 or 2 hours with increasing doses of compounds (starting dose 10 μM, dilution factor 2.5). At the end of the treatment cells are fixed with p-formaldehyde 3.7% for 15-30 min, then I/well) and permeabilized with D-PBS containing washed twice with D-PBS (80 0.1% Triton X-100 and 1% BSA (Sigma-Aldrich) for 15 minutes at room temperature (staining solution). Anti-phospho-MAPK (T202/Y204) monoclonal antibody E10 (Cell Signaling, cat. #9106) diluted 1:100 is added in staining solution and incubated for 1 hour at 37° C. After removal of the primary antibody solution, the anti-mouse Cy™2-conjugated (Green) secondary antibody (Amersham) diluted 1:500 in staining solution containing 2 μg/ml DAPI is added. The plate is incubated for 1 hour at 37° C., washed twice and then red with Cellomics' ArrayScan VTI (4 fields/well, CytoNucTrans algorithm).
The parameter “MEAN_RingAvgIntenCh2”, which measures the mean cytoplasmatic fluorescence intensity associated to p-MAPK staining, is reported as the final result.

[4] = Stability study in PBS buffer pH 7.4; assay type: physicochemical; conditions: PBS pH 7.4, 37° C., 0-120 minutes, HPLC/MS; FIG. 1
Experimental: (§2) A compound of formula (I) of the present invention, dissolved in DMSO, was incubated at 37° C. in PBS at pH 7.4 or fresh mouse plasma. Aliquots were withdrawn and analysed by HPLC/MS at 0, 5, 15, 60 and 120 minutes. The UV signal in the range 210-400 nm was used for the quantification of the chromatographic peaks either of the compound of formula (I) and the parent compound of formula (II).

[5] = In vitro conversion of prodrug into parent compound in fresh mouse plasma; assay type: in vitro ADME; conditions: 37° C., 0-120 minutes, HPLC/MS, FIG. 2
Experimental: as §2

| IC50 [1] [nM] | IC50 [2] [nM] | IC50 [3] [nM] | stability in PBS buffer [4] | Compound | conversion into the parent compound in fresh mouse plasma [5] |
| --- | --- | --- | --- | --- | --- |
| 20 | > 10000 | 20 | – | CCn1cc(-c2ccncc2)c(-c2c(F)ccc(N(COC(C)=O)S(=O)(=O)c3cc(F)ccc3F)c2F)n1 [compound 7, ([(2,5-difluorophenyl)sulfonyl]{3-[1-ethyl-4-(pyridin-4-yl)-1H-pyrazol-3-yl]-2,4-difluorophenyl}amino)methyl acetate] | – |
| 20 | > 10000 | 20 | – | CCn1cc(-c2ccncc2)c(-c2c(F)ccc(N(C(C)=O)S(=O)(=O)c3cc(F)ccc3F)c2F)n1 [compound 5, N-[(2,5-difluorophenyl)sulfonyl]-N-{3-[1-ethyl-4-(pyridin-4-yl)-1H-pyrazol-3-yl]-2,4-difluorophenyl}acetamide] | – |
| 20 | > 10000 | 20 | – | CCn1cc(-c2ccncc2)c(-c2c(F)ccc(N(C(=O)OC)S(=O)(=O)c3cc(F)ccc3F)c2F)n1 [compound 1, methyl [(2,5-difluorophenyl)sulfonyl]{3-[1-ethyl-4-(pyridin-4-yl)-1H-pyrazol-3-yl]-2,4-difluorophenyl}carbamate] | – |
| 170 | > 10000 | 20 | – | CCOC(=O)N(c1ccc(F)c(-c2nn(C)cc2-c2ccncc2)c1F)S(=O)(=O)c1cc(F)ccc1F [compound 12, ethyl [(2,5-difluorophenyl)sulfonyl]{3-[1-methyl-4-(pyridin-4-yl)-1H-pyrazol-3-yl]-2,4-difluorophenyl}carbamate] | – |
| 90 | > 10000 | 50 | – | CCn1cc(-c2ccnc(N)c2)c(-c2c(F)ccc(N(C(C)=O)S(=O)(=O)c3cc(F)ccc3F)c2F)n1 [Cmpd. No. 45, N-{3-[4-(2-aminopyridin-4-yl)-1-ethyl-1H-pyrazol-3-yl]-2,4-difluorophenyl}-N-[(2,5-difluorophenyl)sulfonyl]acetamide] | – |
| 370 | > 10000 | 140 | stable in buffer | CCOC(=O)N(c1ccc(F)c(-c2nn(CC)cc2-c2ccncc2)c1F)S(=O)(=O)c1cc(F)ccc1F [Cmpd. No. 2, ethyl [(2,5-difluorophenyl)sulfonyl]{3-[1-ethyl-4-(pyridin-4-yl)-1H-pyrazol-3-yl]-2,4-difluorophenyl}carbamate] | rapidly converted into the corresponding parent compound |
| 20 | > 10000 | 20 | – | CCCOC(=O)N(c1ccc(F)c(-c2nn(CC)cc2-c2ccncc2)c1F)S(=O)(=O)c1cc(F)ccc1F [compound 3, propyl [(2,5-difluorophenyl)sulfonyl]{3-[1-ethyl-4-(pyridin-4-yl)-1H-pyrazol-3-yl]-2,4-difluorophenyl}carbamate] | – |
| 20 | > 10000 | 20 | – | CCn1cc(-c2ccncc2)c(-c2c(F)ccc(N(C(=O)OC(C)C)S(=O)(=O)c3cc(F)ccc3F)c2F)n1 [Cmpd. No. 4, propan-2-yl [(2,5-difluorophenyl)sulfonyl]{3-[1-ethyl-4-(pyridin-4-yl)-1H-pyrazol-3-yl]-2,4-difluorophenyl}carbamate] | – |
